# Data published in article PMC10386914 (Clinical Pharmacokinetics, 2023).
# Experiment: Grade ≥3 toxicity
# Format: in vivo, human
# Settings: standard dose; study period
compound,measurement,value
Cc1ccc(Nc2nccc(N(C)c3ccc4c(C)n(C)nc4c3)n2)cc1S(N)(=O)=O [Pazopanib],"patients with grade ≥3 adverse events, wildtype patients",29%
